Measured values: article PMC7942396, “Drug Repurposing Screen for Compounds Inhibiting the Cytopathic Effect of SARS-CoV-2” (Frontiers in Pharmacology, 2021)
pEC50, pIC50: −log10 of the molar value. “And” between values parts separate entries of the source, which are not always exact repeats. Identical values can stand only once. Counter-ions that a name gives are not always drawn. Like-named read-outs stand apart in the source and are kept apart here.

Assays:
SARS-CoV-2 [1] = test system: SARS-CoV-2; set-up: method as in Stanford University, 2020; settings: Calu-3 or Huh7 cell lines; ref Stanford University, 2020; read-out: EC50 against SARS-CoV-2; cited from earlier work
in vitro = settings: African green monkey
P-glycoprotein (P-gp) = test system: P-glycoprotein (P-gp); set-up: method as in EMA, 2020; settings: ref EMA, 2020; cited from earlier work
Vero E6 cells = test: cells; settings: Chlorocebus sabaeus, Vero C1008, read-out: % Viability: IC50
SARS-CoV-2 [2] = test system: SARS-CoV-2; set-up: method as in Stanford University, 2020; settings: Vero E6 cells; ref Stanford University, 2020; read-out: EC50 against SARS-CoV-2; cited from earlier work
[3] = test system: SARS-CoV-2 (USA_WA1/2020); test: microbe, parasite or virus in culture; format: cell-based
[4] = human, cited from earlier work
SARS-CoV = settings: ref Barnard et al., 2008; read-out: EC50, inhibition of SARS-CoV replication; cited from earlier work
Ebola virus = settings: ref Kouznetsova et al., 2019; read-out: EC50, block of Ebola viral entry; cited from earlier work
[5] = Severe acute respiratory syndrome coronavirus 2, Vero C1008, 72 h; read-out: CPE EC50
[6] = Severe acute respiratory syndrome coronavirus 2, Vero C1008; […]; DMSO 0%, no-virus control 100%; hit confirmation; read-out: CPE % efficacy

CCC(CC)COC(=O)[C@H](C)N[P@](=O)(OC[C@H]1O[C@@](C#N)(c2ccc3c(N)ncnn23)[C@H](O)[C@@H]1O)Oc1ccccc1 [Remdesivir, reference compound]
pEC50 (SARS-CoV-2 [1]): < 7.30 | cytotoxicity (in vitro): < 30% | Substrate of Pgp (P-glycoprotein (P-gp)): substrate of Pgp | pIC50 (Vero E6 cells): < 4.52 | pEC50 (SARS-CoV-2 [2]): < 6.00 | pEC50 [3, 5]: 5.00 | pEC50 ([3]; Severe acute respiratory syndrome coronavirus 2, Vero C1008, independent runs of primary screens and hit confirmation; read-out: EC50 in the CPE assay, control concentration-response per run): 5.34 | pIC50 ([3]; Severe acute respiratory syndrome coronavirus 2, Vero C1008, printed in picture of Figure 2B, one value per run; read-out: % CPE Rescue: IC50): 5.34 | Emax [3, 6]: 133% | pEC50 ([3]; independent runs of primary screens and hit confirmation; listed as remdesivir; read-out: EC50 in the CPE assay, control concentration-response per run): 5.29 | pEC50 ([3]; independent runs of primary screens and hit confirmation; read-out: EC50 in the CPE assay, control concentration-response per run): 5.35 and 5.14

COc1ccc2c(c1)N(C[C@H](C)CN(C)C)c1ccccc1S2 [Methotrimeprazine maleate, reference compound]
cytotoxicity at 72 h (in vitro): < 30% | pEC50 [3, 5]: 5.00 | Emax [3, 6]: 84.6% | Elimination T1/2 ([4]; Single dose 25 mg PO, ref AA Pharma Inc. (2012)): 10.8 h | pEC50 (SARS-CoV): ~5.00

CC(=O)c1ccc2c(c1)N(CCCN1CCC(CCO)CC1)c1ccccc1S2 [Piperacetazine, reference compound]
pEC50 (Ebola virus): 5.01 | cytotoxicity (in vitro): < 30% | pEC50 [3, 5]: 5.00 | Emax [3, 6]: 104%

CNCC[C@H](Oc1cccc2ccccc12)c1cccs1 [Duloxetine hydrochloride, reference compound]
cytotoxicity (in vitro): < 30% | pEC50 ([3]; Severe acute respiratory syndrome coronavirus 2, Vero C1008, 72 h, read-out: CPE EC50): 5.00 | Emax ([3]; Severe acute respiratory syndrome coronavirus 2, Vero C1008, read-out: CPE % Efficacy): 90% | Elimination T1/2 ([4]; 60 mg BID PO, ref Knadler et al. (2011)): 6.96 to 14.9 h

CN(C)CC/C=C1/c2ccccc2Sc2ccc(Cl)cc21 [Chlorprothixene, reference compound]
cytotoxicity (in vitro): < 30% | pEC50 [3, 5]: 5.00 | Emax [3, 6]: 104% | Elimination T1/2 ([4]; Single dose 100 mg IV, ref Bagli et al. (1996)): 25.8 ± 13.6 h | pEC50 (SARS-CoV): ~5.00

CNCCC(Oc1ccc(C(F)(F)F)cc1)c1ccccc1 (racemic) [(+/-) -Fluoxetine, reference compound]
cytotoxicity (in vitro): < 30% | Emax [3, 6]: 116% | Elimination T1/2 ([4]; Single dose 40 mg PO, ref Eli Lilly and Company (1987)): 24 to 72 h

COC(=O)[C@H]1[C@H]2C[C@@H]3c4[nH]c5ccccc5c4CCN3C[C@H]2C[C@@H](OC(=O)c2cc(OC)c(OC)c(OC)c2)[C@@H]1OC [Deserpidine, reference compound]
cytotoxicity at 72 h (in vitro): < 30% | pEC50 [3, 5]: 5.00 | Emax [3, 6]: 84.7% | Elimination T1/2 ([4]; Single dose 0.25 mg PO, ref Zhang et al. (2009)): 42.9 ± 17.8 h

CN(C)C(=O)C(CCN1CCC(O)(c2ccc(Cl)cc2)CC1)(c1ccccc1)c1ccccc1 [Loperamide hydrochloride, reference compound]
cytotoxicity (in vitro): < 30% | Emax [3, 6]: 98.6% | Elimination T1/2 ([4]; Single dose 2 mg PO, ref Janssen Pharmaceutica Inc. (1998)): 9.1 to 14.4 h
